Ends that are not written are not given here.
What was measured:
cathepsin E = target: T1, cathepsin E (Rattus norvegicus, UniProt P16228); experiment: SPR (Biacore 2000) measurement of KD; conditions: CatE immobilized on CM5 chip, running buffer 50 mM Tris-HCl, 100 mM NaCl, pH 7.4, four peptide concentrations, 1:1 binding with mass transfer model, unit M printed in b35 only, read-out: KD (dissociation constant)
T1 construct: The enzyme CatE was prepared from rat spleen according to the method previously described; from tissue; host or cells: rat spleen
T1 sequence (P16228 59-398): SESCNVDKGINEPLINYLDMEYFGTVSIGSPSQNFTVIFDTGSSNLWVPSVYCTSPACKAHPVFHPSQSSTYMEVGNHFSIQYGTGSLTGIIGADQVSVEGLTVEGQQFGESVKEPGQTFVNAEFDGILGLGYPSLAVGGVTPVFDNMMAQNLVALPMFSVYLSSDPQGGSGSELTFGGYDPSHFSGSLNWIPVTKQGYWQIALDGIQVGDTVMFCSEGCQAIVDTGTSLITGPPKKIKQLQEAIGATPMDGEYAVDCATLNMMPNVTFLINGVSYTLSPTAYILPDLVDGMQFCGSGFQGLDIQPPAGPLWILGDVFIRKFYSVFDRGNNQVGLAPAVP
Description: (§1) A fluorogenic substrate susceptible at neutral pH to the protease cathepsin E, which usually functions at acidic pH, was designed as per reference: [Nma-Gly-Gly-Arg-Arg-Ser-Gly-Thy-Cys-Gly(Dnp)-D-Arg-NH2]. The peptide was custom-synthesized at Peptide Institute (Osaka, Japan) and confirmed to be an effective substrate at pH 7.4. The peptide was dissolved in dimethyl sulfoxide (DMSO) at 10 mM and stored in a deep freezer until use. The enzyme CatE was prepared from rat spleen according to the method previously described and immobilized on N-hydroxysuccinimide-activated sepharose beads (GE Healthcare, USA) using the amine-coupling method and stored in, 100 mM phosphate buffer (pH 7.4) at 4°C.
An SPR instrument, Biacore 2000 (GE Healthcare, UK), was used for measuring KD for the binding of cathepsin E and selected peptides. Cathepsin E was immobilized onto Biacore sensor chip CM5 (GE Healthcare, UK) by the amine-coupling method using an Amine Coupling Kit (GE Healthcare, UK). Immobilization of cathepsin E was performed using running buffer (50 mM sodium acetate, 100 mM NaCl, pH 4.5). To determine dissociation constants, four different concentrations of selected peptides were used for the interaction. […] The binding data were analyzed with the 1 : 1 binding with mass transfer model in the BIAevaluation software version 4 : 1 (Biacore).

cathepsin E (CatE) = experiment: CatE-activity-enhancement assay at neutral pH (fluorogenic substrate); assay type: biochemical, rat; conditions: pH 7.4; for Activities (%) Asy (CatE activity with chemically synthesized peptide): CatE 20 nM : peptide 1:1; for Activities (%) Asy (CatE activity with chemically synthesized peptide) / Activities (%) Adp (CatE activity with in vitro translated peptide): 50 mM Tris-HCl, 100 mM NaCl, preincubation 25°C 10 min, substrate 5 μM, 37°C 1 h, fluorescence ex 340/em 440 nm, 100% = CatE + substrate without peptide; for Activities (%) Adp (CatE activity with in vitro translated peptide): CatE 20 nM : peptide 1:1 (20 nM), three independent experiments
Description: as §1
CatE-activation by peptide aptamers was assayed by the method described previously but with a few modifications. Briefly, the CatE (20 nM) solution preincubated with a peptide aptamer in a 1 : 1 molar ratio in the selection buffer (50 mM Tris-HCl, 100 mM NaCl, pH 7.4) at 25°C for 10 min. was combined with the fluorogenic substrate (5 μM) and the enzyme reaction performed at 37°C for 1 h. The reaction product was measured by fluorescence intensity at 440 nm with an excitation wavelength of 340 nm using a fluorescence microplate reader, Infinite 200 (Tecan, Japan). The percentage of activation (A) was calculated by fitting the data to the following equation:
(1) A=100×Sf−Bf/Cf−Bf [% activation], where Sf represents the fluorescence intensity of the positive reaction consisting of the enzyme (CatE), the fluorogenic substrate, and a possible peptide activator; C f is that of the control reaction mixture consisting of CatE and fluorogenic substrate (without peptide activator); B f is the background fluorescence of the negative reaction mixture consisting of only the fluorogenic substrate.

[1] = target: T2, P3 (p3006) peptide aptamer; experiment: SPR
T2 chain: IEGRVGCDFMYVG

[2] = target: T3, P1 (p2006) peptide aptamer; experiment: SPR
T3 chain: VGCDFMYV

[3] = target: T4, S3 (p4038) peptide aptamer; experiment: SPR
T4 chain: IGCEERSFPNIIIIIG

IEGRVGCDFMYVG [P3] was tested, and the Kd (cathepsin E) was 334 nM.

In the case of IGCEERSFPNIIIIIG [S3], the Kd (cathepsin E) is reported as 389 nM.

For KGPPPCPC [P2], the “Activities (%) Asy (CatE activity with chemically synthesized peptide)” value (cathepsin E (CatE)) was 110 ± 4%, the “Activities (%) Adp (CatE activity with in vitro translated peptide)” value (“Activities (%) Adp” below) (cathepsin E (CatE)) was 128 ± 20% and the “enhancement of CatE-activity (increase over control)” value (cathepsin E (CatE); in vitro translation synthesized peptides) was 10 to 30%.

With PGIKPPPCIIIIG [S2] the “Activities (%) Asy (CatE activity with chemically synthesized peptide)” value (cathepsin E (CatE)) was 144.5 ± 11% and the “Activities (%) Adp” value (cathepsin E (CatE)) was 180 ± 10%.

SPIISHIVGCDPPSCG [S1] was tested, and the “Activities (%) Adp” value (cathepsin E (CatE)) was 160 ± 20%.

B1: Cathepsin E (protein)
chain: SESCNVDKGINEPLINYLDMEYFGTVSIGSPSQNFTVIFDTGSSNLWVPSVYCTSPACKAHPVFHPSQSSTYMEVGNHFSIQYGTGSLTGIIGADQVSVEGLTVEGQQFGESVKEPGQTFVNAEFDGILGLGYPSLAVGGVTPVFDNMMAQNLVALPMFSVYLSSDPQGGSGSELTFGGYDPSHFSGSLNWIPVTKQGYWQIALDGIQVGDTVMFCSEGCQAIVDTGTSLITGPPKKIKQLQEAIGATPMDGEYAVDCATLNMMPNVTFLINGVSYTLSPTAYILPDLVDGMQFCGSGFQGLDIQPPAGPLWILGDVFIRKFYSVFDRGNNQVGLAPAVP
For B1, the Kd [1] was 334 nM, the Kd [2] was roughly 10000 nM and the Kd [3] was 389 nM.
